Data reported in US7816371B2, “Bicycloheteroaryl compounds as P2X7 modulators and uses thereof” (Renovis, Inc., priority 2006, dated 2010).

Molecular target: T1, P2X7 receptor (Homo sapiens, UniProt Q99572)
T1 construct: host or cells: THP-1 cells differentiated with LPS and IFN-γ
T1 sequence (Q99572 1-595): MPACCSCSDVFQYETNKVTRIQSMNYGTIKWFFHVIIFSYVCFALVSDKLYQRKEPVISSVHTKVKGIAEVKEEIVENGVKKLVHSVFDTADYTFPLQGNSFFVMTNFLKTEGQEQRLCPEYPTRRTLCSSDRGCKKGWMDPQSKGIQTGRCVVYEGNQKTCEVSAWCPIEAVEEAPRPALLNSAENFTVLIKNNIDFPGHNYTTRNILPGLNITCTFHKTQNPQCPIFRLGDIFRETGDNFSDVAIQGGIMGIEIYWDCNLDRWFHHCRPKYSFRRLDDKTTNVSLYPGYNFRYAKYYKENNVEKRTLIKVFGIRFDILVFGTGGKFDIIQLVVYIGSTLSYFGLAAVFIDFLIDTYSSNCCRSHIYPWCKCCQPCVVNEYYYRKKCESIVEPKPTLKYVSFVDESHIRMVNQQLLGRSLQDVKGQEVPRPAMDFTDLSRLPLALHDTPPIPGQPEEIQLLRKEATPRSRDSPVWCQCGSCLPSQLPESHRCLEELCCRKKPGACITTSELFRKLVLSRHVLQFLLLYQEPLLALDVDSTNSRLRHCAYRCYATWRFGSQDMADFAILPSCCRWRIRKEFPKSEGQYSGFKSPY
Experiment: IL-1β release assay in differentiated THP-1 cells stimulated with BzATP (Example 9); % inhibition and IC50
Format: cell-based
Details: BzATP 250 uM; for IC50: THP-1 cells differentiated with LPS and IFN-γ, 30 min pretreatment, IL-1β by ELISA
Description: The cells are then pretreated for 30 minutes with the compound of interest at the appropriate concentration in RPMI media containing 100 IU/mL penicillin, 100 ug/mL streptomycin. […] 30 uL of cell supernatant is then collected and IL-1β levels determined via ELISA (R&D systems Cat. # HSLB50) according to manufacturer's recommendations using the Tecan Safire plate reader. Background adjusted IL-1β levels of drug treated and non-treated cells are used to calculate the percent inhibition.
The compounds set forth in Table 1 were tested for activity in a cellular model as described herein.

Structure (SMILES)	IC50 [µM]	inhibition at 0.3 µM (0.3 μM compound, differentiated THP-1 cells, read-out: IL-1β % Inhib. @ 0.3 μM) [%]
CC(C)(CO)n1ccc2c(NC(=O)Cc3ccc(Cl)c(C(F)(F)F)c3)cccc2c1=O [Compound 369, 2-(4-Chloro-3-trifluoromethyl-phenyl)-N-[2-(2-hydroxy-1,1-dimethyl-ethyl)-1-oxo-1,2-dihydro-isoquinolin-5-yl]-acetamide]	0.015	–
C[C@H](C(N)=O)n1ccc2c(NC(=O)Cc3ccc(C(F)(F)F)cc3)cccc2c1=O [Compound 298]	0.00791	–
C[C@@H](C(N)=O)n1ccc2c(NC(=O)Cc3ccc(Cl)cc3C(F)(F)F)cccc2c1=O [Compound 237, (S)-2-{5-[2-(4-Chloro-2-trifluoromethyl-phenyl)-acetylamino]-1-oxo-1H-isoquinolin-2-yl}-propionamide]	0.00627	–
CC(C(=O)Nc1cccc2c(=O)n(C(CO)CO)ccc12)c1ccc(Cl)cc1 (centres unmarked) [Compound 231]	0.374	–
C[C@H](C(N)=O)n1ccc2c(NC(=O)Cc3ccc(C(F)(F)F)cc3)c(Cl)ccc2c1=O [Compound 316, (R)-2-{6-Chloro-1-oxo-5-[2-(4-trifluoromethyl-phenyl)-acetylamino]-1H-isoquinolin-2-yl}-propionamide]	0.00229	51 to 75
C[C@H](C(=O)Nc1cccc2c(=O)n(C(C(N)=O)c3ccc(Cl)cc3)ccc12)c1ccc(Cl)cc1 (stereo partly drawn) [Compound 315, (S)—N-{2-[Carbamoyl-(4-chloro-phenyl)-methyl]-1-oxo-1,2-dihydro-isoquinolin-5-yl}-2-(4-chloro-phenyl)-propionamide]	0.221	–
O=C(Cc1ccc(F)cc1)Nc1cccc2c(=O)n(CCO)ccc12 [Compound 73]	0.532	–
CC(C(=O)Nc1cccc2c(=O)n([C@@H](C)C(N)=O)ccc12)c1cccc(C(F)(F)F)c1F (some centres unmarked) [Compound 355]	0.0369	–
O=C(Cc1ccc(Cl)c(F)c1)Nc1cccc2c(=O)n(CCO)ccc12 [Compound 354]	0.0842	–
O=C(Cc1ccc(F)c(C(F)(F)F)c1)Nc1c(Cl)ccc2c(=O)n(CCO)ccc12 [Compound 386, N-[6-Chloro-2-(2-hydroxy-ethyl)-1-oxo-1,2-dihydro-isoquinolin-5-yl]-2-(4-fluoro-3-trifluoromethyl-phenyl)-acetamide]	0.00545	–
CS(=O)(=O)c1ccc(CC(=O)Nc2cccc3c(=O)n(CCO)ccc23)cc1 [Compound 72]	> 1	–
CNC(=O)[C@@H](CO)n1ccc2c(NC(=O)C(C)c3ccc(Cl)c(Cl)c3)cccc2c1=O (stereo partly drawn) [Compound 270, (R)-2-{5-[2-(3,4-Dichloro-phenyl)-propionylamino]-1-oxo-1H-isoquinolin-2-yl}-3-hydroxy-N-methyl-propionamide]	0.0374	–
C[C@H](CO)n1ccc2c(NC(=O)Cc3ccc(C(F)(F)F)cc3C(F)(F)F)cccc2c1=O [Compound 361]	0.0143	–
COc1ccc(OC)c(CC(=O)Nc2cccc3c(=O)n(CCO)ccc23)c1 [Compound 77]	> 1	–
C[C@H](C(N)=O)n1ccc2c(NC(=O)Cc3ccc(C(F)(F)F)cc3C(F)(F)F)cccc2c1=O [Compound 380]	0.0643	–
O=C(Cc1cc(Cl)ccc1C(F)(F)F)Nc1cccc2c(=O)n(CCO)ccc12 [Compound 68]	0.72	–
C[C@@H](C(N)=O)n1ccc2c(NC(=O)Cc3ccc(Cl)nc3)cccc2c1=O [Compound 310]	> 1	–
C[C@@H](C(N)=O)n1ccc2c(NC(=O)Cc3ccc(Cl)c(Cl)c3)cccc2c1=O [Compound 236, (S)-2-{5-[2-(3,4-Dichloro-phenyl)-acetylamino]-1-oxo-1H-isoquinolin-2-yl}-propionamide]	0.0466	–
NCC(CCl)Cn1ccc2c(NC(=O)Cc3ccc(Cl)c(C(F)(F)F)c3)cccc2c1=O (centres unmarked) [Compound 258, N-[2-(3-Amino-2-chloromethyl-propyl)-1-oxo-1,2-dihydro-isoquinolin-5-yl]-2-(4-chloro-3-trifluoromethyl-phenyl)-acetamide]	0.00992	–
C[C@H](C(=O)Nc1cccc2c(=O)n([C@@H](C)CO)ccc12)c1ccc(Cl)c(Cl)c1 [Compound 326]	0.122	–
C[C@H](C(N)=O)n1ccc2c(NC(=O)Cc3ccc(Cl)c(F)c3)cccc2c1=O [Compound 300]	0.00596	–
C[C@H](C(=O)Nc1cccc2c(=O)n([C@H](C)CO)ccc12)c1ccc(Cl)c(Cl)c1 [Compound 321]	0.0134	–
O=C(Cc1ccc(C(F)(F)F)cc1C(F)(F)F)Nc1cccc2c(=O)n(C(CO)CO)ccc12 [Compound 233]	0.391	–
CNCCn1ccc2c(NC(=O)Cc3ccc(Cl)c(Cl)c3)cccc2c1=O [Compound 234]	0.144	–
CC(C)C(C(=O)Nc1cccc2c(=O)n(CCO)ccc12)c1ccc(Cl)cc1 (centres unmarked) [Compound 78]	> 1	–
CC(C)(CO)n1ccc2c(NC(=O)Cc3ccc(F)c(Cl)c3)cccc2c1=O [Compound 372]	0.421	–

Structure (SMILES)	IC50 [µM]	inhibition at 0.3 µM (0.3 μM compound, differentiated THP-1 cells, read-out: IL-1β % Inhib. @ 0.3 μM) [%]
C[C@H](C(N)=O)n1ccc2c(NC(=O)Cc3cccc(C#N)c3)cccc2c1=O [Compound 288]	> 1	–
CC(C(=O)Nc1cccc2c(=O)n(C[C@@H]3CCCN3)ccc12)c1ccc(Cl)cc1 (some centres unmarked) [Compound 246]	0.113	–
CC(C)(CO)n1ccc2c(NC(=O)Cc3ccc(F)c(C(F)(F)F)c3)cccc2c1=O [Compound 367]	0.106	–
COc1ccc(C(=O)Nc2cccc3c(=O)n(C(CO)CO)ccc23)c(OC)c1 [Compound 5]	> 1	–
C[C@H](C(N)=O)n1ccc2c(NC(=O)Cc3cc(F)c(F)c(F)c3)cccc2c1=O [Compound 381]	0.0324	–
CC(C)(CO)n1ccc2c(NC(=O)Cc3ccc(C(F)(F)F)cc3)cccc2c1=O [Compound 363]	0.167	–
C[C@H](C(N)=O)n1ccc2c(NC(=O)Cc3ccc(Cl)c(Cl)c3)cccc2c1=O [Compound 239]	0.00405	–
NC(=O)[C@H](CO)n1ccc2c(NC(=O)Cc3ccc(Cl)c(C(F)(F)F)c3)cccc2c1=O [Compound 250, (S)-2-{5-[2-(4-Chloro-3-trifluoromethyl-phenyl)-acetylamino]-1-oxo-1H-isoquinolin-2-yl}-3-hydroxy-propionamide]	0.0151	–
C[C@H](C(=O)Nc1cccc2c(=O)n([C@@H](C(N)=O)c3ccccc3)ccc12)c1ccc(Cl)cc1 [Compound 279, (S)—N-[2-((R)-Carbamoyl-phenyl-methyl)-1-oxo-1,2-dihydro-isoquinolin-5-yl]-2-(4-chloro-phenyl)-propionamide]	0.106	–
C[C@H](C(N)=O)n1ccc2c(NC(=O)Cc3ccc(F)cc3Cl)cccc2c1=O [Compound 291]	0.0206	–
C[C@H](C(N)=O)n1ccc2c(NC(=O)Cc3ccc(Cl)cc3C(F)(F)F)cccc2c1=O [Compound 241]	0.0236	–
C[C@@H](CO)n1ccc2c(NC(=O)Cc3ccc(Cl)cc3F)cccc2c1=O [Compound 328]	0.202	–
C[C@H](C(N)=O)n1ccc2c(NC(=O)[C@H](C)c3ccc(Cl)c(Cl)c3)cccc2c1=O [Compound 269]	0.00897	–
C[C@@H](CO)n1ccc2c(NC(=O)Cc3cccc(C(F)(F)F)c3F)cccc2c1=O [Compound 325]	0.0846	–
C[C@H](C(N)=O)n1ccc2c(NC(=O)Cc3ccc(Cl)cc3F)c(Cl)ccc2c1=O [Compound 343]	0.395	–
O=C(CCc1cc(C(F)(F)F)cc(C(F)(F)F)c1)Nc1cccc2c(=O)n(CCO)ccc12 [Compound 61]	> 1	–
C[C@@H](CO)n1ccc2c(NC(=O)Cc3ccc(C(F)(F)F)c(F)c3)cccc2c1=O [Compound 336]	0.0498	–
NC(=O)Cn1ccc2c(NC(=O)Cc3ccc(Cl)c(C(F)(F)F)c3)cccc2c1=O [Compound 249, 2-{5-[2-(4-Chloro-3-trifluoromethyl-phenyl)-acetylamino]-1-oxo-1H-isoquinolin-2-yl}-acetamide]	0.00483	–
O=C(Cc1cc(C(F)(F)F)cc(C(F)(F)F)c1)Nc1cccc2c(=O)n(CCO)ccc12 [Compound 64]	0.113	–
CC(C)(CO)n1ccc2c(NC(=O)Cc3ccc(C(F)(F)F)c(F)c3)cccc2c1=O [Compound 365]	0.0411	–
C[C@@H](C(N)=O)n1ccc2c(NC(=O)Cc3ccc(F)c(C(F)(F)F)c3)cccc2c1=O [Compound 348]	0.0208	–
O=C(Cc1ccc(Cl)c(C(F)(F)F)c1)Nc1cccc2c(=O)n(C[C@@H]3CCCN3)ccc12 [Compound 232, 2-(4-Chloro-3-trifluoromethyl-phenyl)-N-(1-oxo-2-(S)-1-pyrrolidin-2-ylmethyl-1,2-dihydro-isoquinolin-5-yl)-acetamide]	0.0107	–
O=C(CCc1cc(C(F)(F)F)ccc1C(F)(F)F)Nc1cccc2c(=O)n(CCO)ccc12 [Compound 62]	0.0222	–
C[C@H](CO)n1ccc2c(NC(=O)Cc3ccc(F)c(C(F)(F)F)c3)cccc2c1=O [Compound 339]	0.0105	–
O=C(Cc1ccc(Cl)cc1Cl)Nc1cccc2c(=O)n(C(CO)CO)ccc12 [Compound 82]	0.228	–
C[C@H](CO)n1ccc2c(NC(=O)Cc3ccc(C(F)(F)F)c(F)c3)cccc2c1=O [Compound 335]	0.00931	–
